Experimental data from patent US20090233841A1, “ANALGESIC CONJUGATES” (Regents of the University of Minnesota, priority 2005, published 2009).
“Also recorded” adds a separate entry of the source.

Assays:
male ICR mice [1] = experiment: Mouse radiant heat tail flick assay after acute ICV administration; assay type: in vivo; conditions: for ED50 ICV (nmol): tail flick, Table 2; for ED50 nmol (95% C.L.), antinociceptive potency: conjugates and coadministration; for effect of naltrindole pretreatment on ED50 / acute analgesic activity: pretreatment with the delta antagonist naltrindole
Method: Acute drug administration. Drugs were dissolved in sterile saline (0.9% NaCl). Animals were anesthetized with halothane and drugs were administered with a Hamilton syringe mated to a shortened (3 mm) 27-g needle in a volume of 4 μl by ICV injection into the lateral cerebral ventricle (Haley et al., 1957). The injection site was 1.6 mm lateral and 0.6 mm caudal to bregma.
Antinociceptive testing. […] Mice were tested once before injection (control time).

male ICR mice [2] = experiment: Mouse tail flick assay after IV administration; conditions: for decrease in potency when administering IV versus ICV: tail flick ED50 IV versus ICV
Method: Antinociceptive testing. Antinociception was evaluated by the radiant heat tail flick assay (D'Amour et al., 1941). Briefly, a beam of light was focused on the mouse tail and the time until the tail flicked was measured. Each animal served as its own control and was used only once. Mice were tested once before injection (control time). After injection, the mice were tested at the time of peak drug response (drug time), as determined by pilot time course studies. The light intensity was adjusted so that control times were between 1.5 and 2.5 s. A 10 second cutoff drug time was set to minimize the risk of tissue damage. Percent maximum possible effect (% MPE) was calculated as follows (Dewey et al., 1970): […]
Graded dose response curves of at least 4 doses with at least 8 mice per dose were generated from the % MPE data.
Methods Drugs were administered IV via the tail vein in a volume of 100 μl to male ICR mice. Fifteen minutes later, antinociception was measured by the tail flick assay and charcoal meal (300 μl, oral) was administered by gavage. Thirty minutes after the charcoal meal., the mice were sacrificed by halothane overdose and the distance the charcoal traveled relative to the entire length of the GI tract was compared to the distance traveled in control animals injected with saline. The conjugates tested (MDAN-16, MDAN-19, MDAN-20, and MDAN-21) had linker lengths of 19, 23, 24, and 25 Å.

male ICR mice [3] = experiment: Tolerance: tail flick ED50 after 3-day chronic ICV infusion (osmotic minipump); assay type: in vivo, mouse; conditions: for tolerance on chronic ICV administration: 3-day ICV infusion; for Chronic ED50 nmol (95% C.L.): compound chronically administered ICV for 3 days, then challenge doses; for Saline ED50 nmol (95% C.L.): saline chronically administered ICV for 3 days, then challenge doses of compound; for fold increase in ED50 value after chronic ICV infusion: three-day ICV infusion
Method: (§1) Chronic administration To investigate tolerance and dependence associated with these conjugates, chronic ICV administration studies were performed. The compound of interest was administered ICV via a cannula using an osmotic minipump for 3 days, as previously described (Gomori et al., 2003; Mashiko et al., 2003). Withdrawal was measured by administering naloxone (1 mg/kg; subcutaneous (sc)) and counting the naloxone-precipitated jumps for 10 minutes. Tolerance was determined by administering challenge doses of the compound after chronic infusion for 3 days, and determining the chronic ED50 value at that time.
(§2) Chronic ICV infusion. Osmotic minipumps (model 1003D, Alzet, Durect Corporation, Cupertino, Calif.) were filled with saline or the drug to be tested. The dose of each drug was twelve times its ED50 (nmol)/hour. The minipumps were connected by a 1.6-1.8 cm length of PE-60 tubing to a 3-mm long cannula (osmotic pump connector cannula, Plastics One, Roanoke, Va.) and primed in sterile saline at 37° C. overnight.
(§3) The next day, mice were anesthetized with Avertin (2,2,2-tribromoethanol (370 mg/kg, IP)/tert amyl alcohol (0.16 mg/kg, IP)) before surgery. The scalp was shaved and an incision was made along the midline of the scalp. Hemostats were used to make a pocket under the skin between the shoulder blades. The skull was scraped clean of periosteum so that the cannula pedestal would properly adhere to the skull. A micro drill (Fine Science Tools Inc., Foster City, Calif.) was used to drill a hole approximately 1.6 mm lateral and 0.6 mm caudal to bregma. The minipump was placed between the shoulder blades, the cannula was inserted in the drilled hole into the lateral ventricle, and the cannula pedestal was affixed to the skull with cyanoacrylate glue. The animals were allowed to recover on a heating pad (Fine Science Tools, Foster City, Calif.) and were returned to their cages in the animal facility for three days.
To test the degree of tolerance developed, the osmotic minipump was removed and the mice were returned to their cages for four hours. The mice were then injected with the test drug into the contralateral lateral cerebral ventricle and antinociception was measured with the tail flick test as described above.

male ICR mice [4] = experiment: Physical dependence: naloxone-precipitated withdrawal jumping after chronic ICV infusion; assay type: in vivo, mouse; conditions: for physical dependence on chronic ICV administration: 3-day ICV infusion, naloxone-precipitated jumping; for # of Jumps (SEM), naloxone-precipitated withdrawal: average jumps in 10 minutes after naloxone 1 mg/kg sc, after 3-day ICV infusion
Method: as §1, §2, §3
Testing for dependence and tolerance. The development of physical dependence was assessed by quantifying withdrawal jumping observed during precipitated withdrawal (Way et al., 1969) on the fourth day after surgery. Mice were injected with naloxone (1 mg/kg, sc) and placed into Plexiglas cylinders for 10 minutes. During those 10 minutes, vertical jumps were counted as withdrawal signs.

mice = experiment: Conditioned place preference (CPP); assay type: in vivo, mouse; conditions: for conditioned place preference: IV; for conditioned place preference (summary statement): dose not restated
Method: Conditioned place preference (CPP) is a technique used to measure the rewarding properties of a drug. Two sides of the CPP apparatus have both visual and tactile differences, so that a mouse can tell the difference between sides. On the first day of testing, the time each mouse spends in either side of the apparatus is measured. For the next three days, the drug is “paired” with one side or the other by injecting the mouse and immediately confining it to that side. On the final day, the amount of time the mouse spends in the drug-paired side is determined and the percent change is calculated. If the percent change is positive, the drug is thought to be rewarding and likely to be abused by humans.
Methods The CPP apparatus used was a plastic box, approximately 12 inches×6 inches×6 inches (1/w/h). One half of the box was transparent with a scored or textured floor and the other half of the box had blue vertical stripes with a smooth floor. The box was divided such that the mice could go from one side to the other through an opening or be confined to one side.
Preconditioning On day 1, each mouse was allowed to explore both sides of the box for 15 minutes to expose them to the novel environment. On day 2, each mouse was placed into the box for 15 minutes and the amount of time the mouse spent in each side of the box was recorded. Mice that spend more than 9 minutes in one side of the box are excluded (two of 32 mice were excluded).
Conditioning On day 3, each mouse was given two sets of IV injections. First, the mice were injected with saline and randomly confined to one side of the box for 30 minutes. The mice were then injected with the drug (or saline, for control mice) and confined to the other side of the box (“drug-paired side”) for 30 minutes. This conditioning paradigm was repeated for three days.
Postconditioning On day 6, the amount of time the mouse spent in each side of the box was recorded. For the results, the amount of time the mouse spent in the drug-paired side during preconditioning was subtracted from the time spent in the drug-paired side during post-conditioning to reach a “score”: Score=Postconditioning time in drug-paired side-Preconditioning time spent in drug-paired side.
FIG. 1 depicts the percent change in time spent in the drug-paired side. The asterisks in the graph indicate significant difference from saline (p<0.05).

male ICR mice [5] = experiment: GI transit inhibition (charcoal meal) after IV administration; assay type: in vivo, mouse
[6] = mouse tail flick, acute ICV administration

| SMILES | ED50 ICV (nmol) (male ICR mice [1]) | ED50 IV (nmol) (male ICR mice [2]; tail flick, IV) | Chronic ED50 nmol (95% C.L.) (male ICR mice [3]) | Saline ED50 nmol (95% C.L.) (male ICR mice [3]) | fold increase in ED50 value after chronic ICV infusion (male ICR mice [3]) [fold] | # of Jumps (SEM), naloxone-precipitated withdrawal (male ICR mice [4]) | ED50 nmol (95% C.L.), antinociceptive potency (male ICR mice [1]; [6]) | effect of naltrindole pretreatment on ED50 / acute analgesic activity (male ICR mice [1]) | conditioned place preference (mice; 4× the ED90 analgesic dose) | decrease in potency when administering IV versus ICV (male ICR mice [2]) [×] | conditioned place preference (summary statement) (mice) | other results |
| --- | --- | --- | --- | --- | --- | --- | --- | --- | --- | --- | --- | --- |
| CNC(=O)COCC(=O)NCCCCCNC(=O)COCC(=O)NC1CCC2(O)C3Cc4ccc(O)c5c4C2(CCN3C)C1O5 (centres unmarked) [Compound 12, reference compound] | 0.04 (0.03-0.05) nmol | 1.61 (1.29-1.92) nmol | 0.22 (0.19-0.26) nmol | 0.04 (0.03-0.05) nmol | 5.5 | 83 (13) |  |  |  |  |  | Ligand ED50 pmol (95% C.L.), antinociceptive potency (male ICR mice [1]; mouse tail flick, acute ICV administration, mu control ligands): 39.45 pmol; tolerance on chronic ICV administration (male ICR mice [3]): produced both antinociceptive tolerance and physical dependence; physical dependence on chronic ICV administration (male ICR mice [4]): produced both antinociceptive tolerance and physical dependence; # of Jumps (SEM), naloxone-precipitated withdrawal (male ICR mice [4]; listed as MA-19): 83 |
| CN1CCC23c4c5ccc(O)c4OC2C(NC(=O)COCC(=O)NCCCCCNC(=O)COCC(=O)Nc2cccc4c6c([nH]c24)C2Oc4c(O)ccc7c4C24CCN(CC2CC2)C(C7)C4(O)C6)CCC3(O)C1C5 (centres unmarked) [Compound 6] |  |  | 0.40 (0.33-0.47) nmol | 0.42 (0.37-0.47) nmol |  | 3.6 (1.7) | 0.43 (0.36-0.50) nmol | acute analgesic activity was similar to the control ligand MA-19 | did not display a place preference |  |  | tolerance on chronic ICV administration (male ICR mice [3]; listed as MDAN-19): no tolerance or dependence was observed; also recorded: produced no tolerance or physical dependence; physical dependence on chronic ICV administration (male ICR mice [4]; listed as MDAN-19): no tolerance or dependence was observed; also recorded: produced no tolerance or physical dependence |
| CN1CCC23c4c5ccc(O)c4OC2C(NC(=O)COCC(=O)NCCCCCCCNC(=O)COCC(=O)Nc2cccc4c6c([nH]c24)C2Oc4c(O)ccc7c4C24CCN(CC2CC2)C(C7)C4(O)C6)CCC3(O)C1C5 (centres unmarked) [Compound 8] | 0.08 (0.06-0.10) nmol | 3.3 (3.0-3.6) nmol | 0.10 (0.09-0.11) nmol | 0.10 (0.09-0.11) nmol |  | 3.5 (1.7) | 0.08 (0.06-0.10) nmol |  | did not display a place preference | ~40 | does not produce conditioned place preference | potency relative to morphine when given IV (male ICR mice [2]; tail flick, IV): 50 fold; tolerance on chronic ICV administration (male ICR mice [3]; listed as MDAN-21): no tolerance or dependence was observed; also recorded: produced no tolerance or physical dependence; physical dependence on chronic ICV administration (male ICR mice [4]; listed as MDAN-21): no tolerance or dependence was observed; also recorded: produced no tolerance or physical dependence |
| CN1CCC23c4c5ccc(O)c4OC2C(NC(=O)COCC(=O)NCCNC(=O)COCC(=O)Nc2cccc4c6c([nH]c24)C2Oc4c(O)ccc7c4C24CCN(CC2CC2)C(C7)C4(O)C6)CCC3(O)C1C5 (centres unmarked) [Compound 3] |  |  | 4.72 (3.47-5.91) nmol | 1.62 (1.35-1.89) nmol | 2.6 | 30 (23) | 1.79 (1.54-2.04) nmol | This effect was not observed | suggested a place preference |  |  | tolerance on chronic ICV administration (male ICR mice [3]; listed as MDAN-16): produced both tolerance and dependence; also recorded: both tolerance and physical dependence developed; physical dependence on chronic ICV administration (male ICR mice [4]; listed as MDAN-16): produced both tolerance and dependence; also recorded: both tolerance and physical dependence developed; # of Jumps (SEM), naloxone-precipitated withdrawal (male ICR mice [4]; listed as MDAN-16): 30 |
| CN1CC[C@]23c4c5ccc(O)c4O[C@H]2[C@@H](O)C=C[C@H]3[C@H]1C5 [Morphine, reference compound] | 4.1 (3.7-4.8) nmol | 168 (146-178) nmol | 26.80 (20.82-32.78) nmol | 4.54 (3.51-5.56) nmol |  | 100 (15) |  |  | demonstrated conditioned place preference | ~40 | produced conditioned place preference | efficacy in the TF test (male ICR mice [2]; IV, tail flick 15 min after drug): fully efficacious; # of Jumps (SEM), naloxone-precipitated withdrawal (male ICR mice [4]; listed as morphine): 100±15; efficacy in the GIT inhibition assay (male ICR mice [5]): fully efficacious; GIT inhibition ED50 (male ICR mice [5]; charcoal meal 15 min after drug): 129 (115-142) nmol; conditioned place preference (mice; 2× the ED90 analgesic dose): exhibiting a conditioned place preference |
